“Also recorded” adds a separate entry of the source.
Key:
PKCI KO mice = test: Conditional place preference test; type: in vivo; conditions: preliminary data
Excerpt: Finally, we are looking at the involvement of PKCI in the rewarding function in PKCI KO mice. In this study, we are testing the response of the KO mice to the reward action of amphetamine and cocaine by using conditional place preference test.

mPKCI WT and KO mice = test: Locomotor activity measurement (open field, ambulation and stereotypy); type: in vivo
Description: The generation of PKCI^−/− mice was described previously (Su et al, 2003, supra). PKCI^−/− mice and their wild type littermates were derived by breeding heterozygous […] mice for altered PKCI allele (Hint1) and genotype of the animals was confirmed by PCR of DNA from tail biopsies. Animals were housed 4-6/cage, maintained under standard laboratory condition with food and water provided ad libitum. The male animals were tested between 10-20 weeks of age. Wild type and PKCI^−/− groups were matched for age in all experiments. All studies were conducted with an approved protocol from University of Maryland, School of Pharmacy IACUC.
Mice locomotor activity was monitored during an open field test using “Activity Monitor” chambers (27×27×20.3 cm) associated with the Activity Monitor software (Med Associates Inc St Albans Vt.). Room temperature was set at 23° C.+/−2° C. Horizontal spontaneous locomotion activity, scored as ambulatory counts and stereotypic movements (Sanberg P. R. et al 1987, Pharmacol. Biochem. Behav. 27, 569-72), was recorded during the first 30 min of acclimatization to the novel environment and during 120 min following the treatment. The animals were acclimated to a 12 h cycle light/dark phase with the light on at 7:00 am before the experiments. Tests were performed during the light phase of the cycle between 8:00 am to 3:00 pm. AMPH or other drugs was prepared freshly before each experiment by dissolving in saline (NaCl 0.9%) and administered via intra peritoneal in a total volume of 10 ml/kg at the indicated doses.

[1] = system: extracellular DA in nucleus accumbens and caudate-putamen of mPKCI WT and KO mice; test: In vivo microdialysis, amphetamine-evoked extracellular DA; conditions: 2.5 mg/kg ip, conventional microdialysis, FIG. 4
Description: PKCI^−/− mice and their WT controls were anesthetized and implanted unilaterally with a microdialysis guide cannula (CMA/11, CMA microdialysis) in the nucleus accumbens (AP: +1.5, L: −0.8, V: −3.8 from bregma) or the dorsal striatum (AP: +0.4, L−2.1, V−2.2 from bregma) using standard stereotaxic techniques, and allowed to recover for 5 days prior to the microdialysis experiment as described. […]
For no net flux experiments, five different concentrations of DA (0, 5, 10, 20 and 40 nM) in aCSF were perfused in random order through the dialysis probe. […] The DA content was determined by HPLC coupled to electrochemical detection with an external standard. All the samples were analyzed within 48 hours of collection. […] No net flux data was analyzed as described (Chefer et al 2006, supra). The net flux of DA through the probe (DAin-DAout) was calculated and plotted against the concentration of DA perfused (DAin). The following parameters were calculated from the resulting linear function. […] In the conventional microdialysis experiments investigating the effects of amphetamine, the average of the three baseline samples was calculated, and all the DA concentrations were expressed as % of baseline. […]

[2] = system: PKCI/HINT1 WT and KO mice; test: Tail suspension test, effect of haloperidol; type: in vivo
Excerpt: In order to confirm the results of the forced swim test while removing any bias introduced by the animal's swimming or learning capacity, we used the tail suspension test. This test assesses depression trait using coping behavior in a stressful situation (Cryan J F et al., 2005, Neruosc. Behav. Rev. 29, 571-625). The animals are exposed to a […] stress of being hung in an uncontrollable fashion by the tail for six minutes. Immobility, considered as a depression trait when the animal gives up any escape, is reported in seconds. Data are expressed as mean+/−SEM and analyzed using a 2 way ANOVA (age×genotype) followed by Bonferroni when p<0.05.
Haloperidol 0.05 mg/kg and 0.1 mg/kg were administered via intra-peritoneal (10 ml/kg) 30 minutes before the test. Data are expressed as mean+/−SEM and analyzed using a 2 way ANOVA (treatment×genotype) followed by Bonferroni when p<0.05.

mice [3] = conditions: previously described; cited from earlier work
mice [4] = conditions: 10 mg/kg dose; cited from earlier work

C[C@H](N)Cc1ccccc1 [amphetamine, D-amphetamine]
response of KO mice to reward action (PKCI KO mice): higher response
effect on locomotion (mPKCI WT and KO mice; AMPH 2.5 mg/kg i.p., 120 min after treatment, WT and KO mice, FIG. 2): increased locomotion in both WT and KO animals
amphetamine-evoked locomotor response, PKCI KO compared with WT (mPKCI WT and KO mice; AMPH 2.5 mg/kg i.p., KO vs WT): three times more
increase in amphetamine-evoked activity in mPKCI KO mice, dose response (mPKCI WT and KO mice; D-AMPH 1.25, 2.5 and 5 mg/kg i.p., FIG. 3): consistent across a range of amphetamine doses
amphetamine-evoked DA response, WT vs KO [1]: No significant difference between WT and KO mice; also recorded: did not differ in WT and KO animals

O=C(CCCN1CCC(O)(c2ccc(Cl)cc2)CC1)c1ccc(F)cc1 [Haloperidol]
immobility compared with saline treatment ([2]; 0.05 mg/kg and 0.1 mg/kg i.p. 30 minutes before the test, WT and KO, FIG. 8): increased immobility in both WT and KO animals
increase in immobility in KO mice relative to WT level ([2]; 0.1 mg/kg, 3 months and 15 months old): reaching the level attained by WT animals
mice immobility in the tail suspension test (mice [3]): increase mice immobility

CN1CCc2cccc3c2[C@H]1Cc1ccc(O)c(O)c1-3 [apomorphine]
locomotor activity (total ambulation and stereotyped behavior), KO compared with WT (mPKCI WT and KO mice; apomorphine 10 mg/kg i.p., FIG. 5): significantly higher locomotor activity as compared with WT

CN1CC[C@]23c4c5ccc(O)c4O[C@H]2[C@@H](O)C=C[C@H]3[C@H]1C5 [morphine]
locomotion (mice [4]): a decrease in locomotion was often observed
effect on locomotor activity (mPKCI WT and KO mice; morphine 10 mg/kg i.p., 120 min after treatment, WT and KO mice, FIG. 2): did not promote increase in locomotor activity; also recorded: depressive locomotor effect on both wild type and knockout mice
